# In patent US10966937B2, “Compositions and methods for delivery of polyunsaturated fatty acid derivatives and analogs” (Cytometix, Inc., priority 2015, dated 2021):
# Columns and labels:
# [1] = tested on: post-operative pain model; assay: Post-operative pain model (hindpaw incision), mechanical allodynia (Von Frey filament); assay type: in vivo, male Sprague Dawley rats; conditions: CMX-020 intraduodenally at various doses in DHA TG, 3 hours post-surgery
# Experimental: In FIG. 7, groups of male Sprague Dawley rats were administered CMX-020 intraduodenally at various doses using high purity DHA in triglyceride form as the delivery vehicle. CMX-020 was measured in plasma to determine its concentrations immediately after the efficacy endpoint. Prior to administration, the rat's hindpaw was surgically incised and sutured. 3 hours post-surgery the rats were subjected to mechanical allodynia (Von Frey filament) assessment to quantify the analgesic effect of CMX-020 (% MPE=post drug threshold−baseline threshold/cutoff threshold−baseline threshold×100).
# clinical = conditions: both, human, in vivo, po
# [2] = tested on: rodent model of osteoarthritis; assay: Rodent model of osteoarthritis (MIA), mechanical allodynia, CMX-020 and Tramadol; assay type: in vivo, male Sprague Dawley rats
# [3] = Plasma exposure of CMX-020 from enterically coated softgels with DHA TG vehicle; assay type: in vivo, male cynomolgus monkey
# Experimental: In FIG. 5, groups of male cynomolgus monkey were administered CMX-020 (40 mg total dose) in enterically coated softgels at 10, 5 and 2.5% (w/w) using high purity DHA in triglyceride form as the delivery vehicle. CMX-020 was measured through time in plasma to determine its concentrations. FIG. 5 illustrates that the systemic exposure of CMX-020 in DHA TG at various concentrations provides suitable systemic exposure for more than 12 hours. In this study, the optimal concentration was 5% displaying an absolute bioavailability of 20%.
# [4] = tested on: rodent model of fibromyalgia; assay: Rodent model of fibromyalgia (reserpine), mechanical allodynia, CMX-020 and Pregabalin; assay type: in vivo, male Sprague Dawley rats
# [5] = tested on: rodent model of Chemotherapeutic induced pain; assay: Chemotherapeutic (paclitaxel) induced pain model, mechanical allodynia, CMX-020 and Duloxetine; assay type: in vivo, male Sprague Dawley rats
# Experimental: In FIGS. 16 and 17, groups of male Sprague Dawley rats received four daily consecutive injections of paclitaxel (1 mg/kg, ip), followed by a second series of four daily injections one week after the first injection, inducing a model of chemotherapeutic-induced peripheral neuropathy Animals were tested 2-3 days after receiving the last injection of paclitaxel with treatment of CMX-020 and Duloxetine administered either alone or in combination at various combinational doses and efficacy was tested using mechanical allodynia pain thresholds (Von Frey Filaments, up-down method). The method of Chou-Talalay and CompuSyn computer software were used to automate analysis of dose effect data for each individual drug and their combination. […] The fold reduction of Duloxetine in combination with CMX-020 is greater than 2-fold in efficacy ranges at and greater than 20% (FIG. 17).
# [6] = tested on: rodent model of spinal nerve ligation; assay: Spinal nerve ligation model, mechanical allodynia, CMX-020 and Duloxetine; assay type: in vivo, male Sprague Dawley rats
# Experimental: In FIGS. 14 and 15, groups of male Sprague Dawley rats underwent a spinal nerve ligation method of the left L5 and L6 spinal nerves, inducing a model of peripheral neuropathic pain. 1 weeks later treatment with CMX-020 and Duloxetine were administered either alone or in combination at various combinational doses and efficacy was tested using mechanical allodynia pain thresholds (Von Frey Filaments, up-down method). The method of Chou-Talalay and CompuSyn computer software were used to automate analysis of dose effect data for each individual drug and their combination. […] The fold reduction of Duloxetine in combination with CMX-020 is greater than 2-fold in efficacy ranges at and greater than 20% (FIG. 15).
# [7] = efficacy ranges at and greater than 20%
smiles,measurement,setting,value
CCCCCC(=O)N(CC/C=C\C/C=C\C/C=C\CCCC(=O)NC1CC1)C(C)C [CMX-020],relation of systemic exposure to analgesic efficacy (% MPE),[1],positively correlates
same,Tmax,clinical,3.5 to 5.5 h
same,analgesic effect of the combinational therapy (isobologram),"[2]; in combination with Tramadol, 2 weeks after MIA",greater than a simple additive effect
same,duration of suitable systemic exposure,"[3]; CMX-020 40 mg total dose at 10, 5 and 2.5% (w/w) in DHA TG, monkey",more than 12 hours
same,bioavailability,"[3]; male, cynomolgus monkey, plasma, oral, CMX-020 40 mg total dose, 5% (w/w) in DHA TG, read-out: absolute bioavailability",20%
same,analgesic effect of the combinational therapy (isobologram),[4]; co-administered with Pregabalin,greater than a simple additive effect
same,analgesic effect of the combinational therapy (isobologram),[5]; in combination with Duloxetine,greater than a simple additive effect
same,analgesic effect of the combinational therapy (isobologram),[6]; in combination with Duloxetine,greater than a simple additive effect
"CNCC[C@H](Oc1cccc2ccccc12)c1cccs1 [Duloxetine, reference compound]",fold reduction of Duloxetine in combination with CMX-020,[5]; [7],greater than 2 fold
same,fold reduction of Duloxetine in combination with CMX-020,[6]; [7],greater than 2 fold
"CC(C)C[C@H](CN)CC(=O)O [Pregabalin, reference compound]",fold reduction of Pregabalin in combination with CMX-020,[4]; efficacy ranges at and greater than 35%,greater than 2 fold
"COc1cccc(C2(O)CCCCC2CN(C)C)c1 (stereo not drawn) [Tramadol, reference compound]",fold reduction of Tramadol in combination with CMX-020,[2]; efficacy ranges at and greater than 10%,greater than 2 fold
